Experimental findings from US12685735B2 (Foghorn Therapeutics Inc., priority 2020, dated 2026) are described below.

One assay deals with BRM (Homo sapiens, UniProt P51531). In words: ATPase catalytic activity assay of BRM (ADP-Glo). The note with it: for IC50: read-out: BRM IC50 (μM)*. The format is biochemical. The essentials:
(§1)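 ADP formed by the ATPase reaction was quantified by ADP-Glo luminescence. After the reaction, unconsumed ATP was depleted (40 min, room temperature), then ADP was converted to ATP for luciferase detection (60 min, room temperature) before reading on a luminometer.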

The target in another assay is BRG-1 (Homo sapiens, UniProt P51532). The experiment in a line: ATPase catalytic activity assay of BRG-1 (ADP-Glo). The note with it: ATPase catalytic activity, ADP-Glo; for IC50: read-out: BRG1 IC50 (μM)*; for Emax: read-out: BRG1 Max % Inhibition. The format is biochemical. The essentials:
as §1

A value given as a limit tells only on which side of the number the result lay.

BRG-1, sequence (P51532 whole entry): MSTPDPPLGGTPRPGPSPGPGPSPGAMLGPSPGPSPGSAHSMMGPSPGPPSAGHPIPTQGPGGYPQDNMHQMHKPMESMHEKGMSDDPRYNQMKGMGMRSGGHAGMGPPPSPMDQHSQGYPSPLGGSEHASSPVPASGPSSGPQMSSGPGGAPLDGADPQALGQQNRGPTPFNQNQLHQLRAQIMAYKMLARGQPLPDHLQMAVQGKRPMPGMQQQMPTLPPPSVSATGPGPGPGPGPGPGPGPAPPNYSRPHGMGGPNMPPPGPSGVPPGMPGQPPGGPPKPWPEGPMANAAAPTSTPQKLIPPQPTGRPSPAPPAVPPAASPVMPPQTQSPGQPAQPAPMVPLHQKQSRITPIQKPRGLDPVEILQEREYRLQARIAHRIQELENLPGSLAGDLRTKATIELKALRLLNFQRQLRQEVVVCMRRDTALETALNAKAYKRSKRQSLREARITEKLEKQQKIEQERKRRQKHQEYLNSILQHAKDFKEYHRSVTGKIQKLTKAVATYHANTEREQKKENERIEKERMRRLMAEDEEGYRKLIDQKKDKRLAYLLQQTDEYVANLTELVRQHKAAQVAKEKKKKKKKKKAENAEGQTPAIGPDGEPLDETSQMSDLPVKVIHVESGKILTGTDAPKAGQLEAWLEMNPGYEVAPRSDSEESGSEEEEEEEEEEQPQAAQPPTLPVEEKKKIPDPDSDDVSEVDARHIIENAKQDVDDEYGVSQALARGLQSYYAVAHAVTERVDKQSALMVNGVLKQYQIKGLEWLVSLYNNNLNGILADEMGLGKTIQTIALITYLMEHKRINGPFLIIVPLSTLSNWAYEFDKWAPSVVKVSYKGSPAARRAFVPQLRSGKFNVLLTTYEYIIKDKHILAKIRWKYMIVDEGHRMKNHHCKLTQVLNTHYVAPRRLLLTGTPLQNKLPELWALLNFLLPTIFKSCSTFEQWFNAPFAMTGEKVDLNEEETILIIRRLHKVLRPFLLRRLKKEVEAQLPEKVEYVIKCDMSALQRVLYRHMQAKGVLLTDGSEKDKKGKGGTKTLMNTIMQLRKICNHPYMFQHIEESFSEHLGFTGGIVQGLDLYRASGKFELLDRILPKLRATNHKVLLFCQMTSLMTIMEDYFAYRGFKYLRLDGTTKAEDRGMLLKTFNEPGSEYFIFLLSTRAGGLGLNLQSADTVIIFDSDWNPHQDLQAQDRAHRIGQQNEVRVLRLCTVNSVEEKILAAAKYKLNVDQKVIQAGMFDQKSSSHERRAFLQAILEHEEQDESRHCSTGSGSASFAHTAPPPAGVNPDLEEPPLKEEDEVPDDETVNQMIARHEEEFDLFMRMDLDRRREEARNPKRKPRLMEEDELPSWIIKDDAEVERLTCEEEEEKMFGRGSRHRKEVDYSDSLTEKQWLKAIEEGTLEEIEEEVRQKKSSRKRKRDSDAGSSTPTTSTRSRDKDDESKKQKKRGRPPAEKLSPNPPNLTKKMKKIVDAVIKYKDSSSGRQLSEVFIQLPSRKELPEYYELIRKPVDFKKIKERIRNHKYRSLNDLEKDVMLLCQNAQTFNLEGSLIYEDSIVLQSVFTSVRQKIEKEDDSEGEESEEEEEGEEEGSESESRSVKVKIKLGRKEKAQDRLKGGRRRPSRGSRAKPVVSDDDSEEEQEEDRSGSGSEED
BRM, sequence (P51531 whole entry): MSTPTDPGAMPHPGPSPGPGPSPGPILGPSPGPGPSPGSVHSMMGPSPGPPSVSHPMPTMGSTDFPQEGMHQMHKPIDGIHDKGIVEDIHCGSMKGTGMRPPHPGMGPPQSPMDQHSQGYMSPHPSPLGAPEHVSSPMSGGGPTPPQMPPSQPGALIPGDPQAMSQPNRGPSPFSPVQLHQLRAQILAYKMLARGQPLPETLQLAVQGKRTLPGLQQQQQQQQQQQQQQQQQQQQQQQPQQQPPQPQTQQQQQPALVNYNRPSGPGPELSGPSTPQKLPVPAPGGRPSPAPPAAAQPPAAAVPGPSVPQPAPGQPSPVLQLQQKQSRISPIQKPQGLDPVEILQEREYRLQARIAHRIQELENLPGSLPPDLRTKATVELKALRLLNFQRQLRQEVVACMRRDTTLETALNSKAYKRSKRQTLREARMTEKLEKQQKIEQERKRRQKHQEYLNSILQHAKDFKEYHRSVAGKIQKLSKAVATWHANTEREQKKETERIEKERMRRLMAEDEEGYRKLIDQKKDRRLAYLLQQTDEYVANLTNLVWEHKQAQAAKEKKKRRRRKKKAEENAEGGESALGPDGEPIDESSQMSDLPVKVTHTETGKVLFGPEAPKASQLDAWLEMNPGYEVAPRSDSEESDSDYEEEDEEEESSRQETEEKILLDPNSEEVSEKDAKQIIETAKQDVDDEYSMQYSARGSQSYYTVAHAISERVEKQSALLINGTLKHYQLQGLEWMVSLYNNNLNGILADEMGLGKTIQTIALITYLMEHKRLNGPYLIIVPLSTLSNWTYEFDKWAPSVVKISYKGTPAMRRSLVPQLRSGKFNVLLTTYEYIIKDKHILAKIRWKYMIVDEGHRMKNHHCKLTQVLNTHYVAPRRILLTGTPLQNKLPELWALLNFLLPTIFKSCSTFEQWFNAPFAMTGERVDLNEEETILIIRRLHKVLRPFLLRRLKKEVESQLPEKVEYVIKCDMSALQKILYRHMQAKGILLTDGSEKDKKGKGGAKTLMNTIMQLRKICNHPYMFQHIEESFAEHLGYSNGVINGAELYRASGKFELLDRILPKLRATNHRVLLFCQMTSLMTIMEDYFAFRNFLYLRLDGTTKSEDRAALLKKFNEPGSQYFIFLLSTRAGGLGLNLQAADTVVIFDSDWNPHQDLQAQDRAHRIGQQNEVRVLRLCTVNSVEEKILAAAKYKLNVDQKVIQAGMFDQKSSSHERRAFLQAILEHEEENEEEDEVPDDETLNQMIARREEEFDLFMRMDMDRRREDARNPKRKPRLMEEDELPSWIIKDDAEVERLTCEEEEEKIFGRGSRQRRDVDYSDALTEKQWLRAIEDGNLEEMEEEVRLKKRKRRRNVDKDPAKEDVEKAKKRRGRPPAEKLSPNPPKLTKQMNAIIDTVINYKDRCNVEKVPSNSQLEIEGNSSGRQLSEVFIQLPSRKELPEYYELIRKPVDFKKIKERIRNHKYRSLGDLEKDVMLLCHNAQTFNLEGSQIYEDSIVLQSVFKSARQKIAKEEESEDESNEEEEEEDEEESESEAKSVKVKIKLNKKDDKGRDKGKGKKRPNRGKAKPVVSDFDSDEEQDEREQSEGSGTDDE

As for `C[C@@H]1CN(c2cccc(-c3csc(NC(=O)CNC(=O)c4ccc(Cl)c(C(C)(C)CO)c4)n3)c2)C[C@H](C)O1` [Compound 244, 4-chloro-N-[2-[[4-[3-[(cis)-2,6-dimethylmorpholin-4-yl]phenyl]thiazol-2-yl]amino]-2-oxo-ethyl]-3-(2-hydroxy-1,1-dimethyl-ethyl)benzamide], at BRM, the “BRM Max % Inhibition” value is reported as above 95% and the IC50 is below 0.1 µM. Further, at BRG-1, the 50% inhibitory concentration (IC50) is 0.1 to 1 µM and the Emax is above 95%.

As for `Cc1cc(-c2cccc(-c3csc(NC(=O)CNC(=O)c4cc(C)c(C)c(C(C)(C)CN)c4)n3)c2)cc(C)n1` [Compound 245, 3-(2-amino-1,1-dimethyl-ethyl)-N-[2-[[4-[3-(2,6-dimethyl-4-pyridyl)phenyl]thiazol-2-yl]amino]-2-oxo-ethyl]-4,5-dimethyl-benzamide], at BRM, the “BRM Max % Inhibition” value is above 95% and the 50% inhibitory concentration (IC50) is below 0.1 µM. Moreover, on BRG-1, the IC50 was 1 to 5 µM and the Emax was above 70%.

As for `CC(C)(CO)c1cccc(C(=O)NCC(=O)Nc2nc(-c3cccc(N4CCC(O)CC4)c3)cs2)c1` [Compound 247, 3-(2-hydroxy-1,1-dimethyl-ethyl)-N-[2-[[4-[3-(4-hydroxy-1-piperidyl)phenyl]thiazol-2-yl]amino]-2-oxo-ethyl]benzamide], at BRM, the “BRM Max % Inhibition” value was above 95% and the IC50 was in the range of 0.1 to 1 µM. On BRG-1, the IC50 lay in the range of 0.1 to 1 µM and the Emax is above 80%.

In the case of `C[Si](C)(C)c1cccc(C(=O)NCC(=O)Nc2nc(-c3cccc(-c4ccncc4)c3)cs2)c1` [Compound 248, N-[2-oxo-2-[[4-[3-(4-pyridyl)phenyl]thiazol-2-yl]amino]ethyl]-3-trimethylsilyl-benzamide], on BRM, the “BRM Max % Inhibition” value was above 40% and the half-maximal inhibitory concentration (IC50) is 0.1 to 1 µM. At BRG-1, the IC50 fell in the range of 1 to 5 µM and the Emax was above 30%.

Turning to `Cc1nccc(-c2cccc(-c3csc(NC(=O)CNC(=O)c4ccc5c(c4)[C@](C)(C#N)CC5)n3)n2)n1` [Compound 249, (3R)-3-cyano-3-methyl-N-[2-[[4-[6-(2-methylpyrimidin-4-yl)-2-pyridyl]thiazol-2-yl]amino]-2-oxo-ethyl]indane-5-carboxamide], at BRM, the “BRM Max % Inhibition” value is above 95% and the IC50 is below 0.1 µM. Also, on BRG-1, the IC50 was below 0.1 µM and the Emax is above 95%.

With `CC1(C)c2cc(C(=O)NCC(=O)Nc3nc(-c4cccc(-c5ccncc5)c4)cs3)ccc2C[C@@H]1N` [Compound 250, (S)-2-amino-3,3-dimethyl-N-(2-oxo-2-((4-(3-(pyridin-4-yl)phenyl)thiazol-2-yl)amino)ethyl)-2,3-dihydro-1H-indene-5-carboxamide], on BRM, the “BRM Max % Inhibition” value is above 70% and the IC50 was in the range of 1 to 5 µM. At BRG-1, the IC50 was above 5 µM and the Emax was above 50%.

As for `Cc1cc(-c2cccc(-c3csc(NC(=O)CNC(=O)c4ccc5c(c4)[C@@](C)(CN)CCC5)n3)c2)cc(C)n1` [Compound 251, (4S)-4-(aminomethyl)-N-[2-[[4-[3-(2,6-dimethyl-4-pyridyl)phenyl]thiazol-2-yl]amino]-2-oxo-ethyl]-4-methyl-tetralin-6-carboxamide], at BRM, the “BRM Max % Inhibition” value is given as above 50% and the IC50 lay within 1 to 5 µM. Further, at BRG-1, the IC50 is above 5 µM and the Emax is below 30%.

Regarding `C[C@@H]1CN(c2cccc(-c3csc(NC(=O)CNC(=O)c4cccc5c4OCC[C@]5(C)CO)n3)c2)C[C@H](C)O1` [Compound 252, (S)-N-(2-((4-(3-((cis)-2,6-dimethylmorpholino)phenyl)thiazol-2-yl)amino)-2-oxoethyl)-4-(hydroxymethyl)-4-methylchroman-8-carboxamide], at BRM, the “BRM Max % Inhibition” value is reported as above 60% and the IC50 lay within 1 to 5 µM. At BRG-1, the IC50 was above 5 µM and the Emax is above 30%.

Regarding `C[C@@H]1CN(c2cccc(-c3csc(NC(=O)CNC(=O)c4cnc5c(c4)[C@@](C)(C#N)CC5)n3)c2)C[C@H](C)O1` [Compound 253, (S)-5-cyano-N-(2-((4-(3-((cis)-2,6-dimethylmorpholino)phenyl)thiazol-2-yl)amino)-2-oxoethyl)-5-methyl-6,7-dihydro-5H-cyclopenta[b]pyridine-3-carboxamide], on BRM, the “BRM Max % Inhibition” value is given as above 90% and the half-maximal inhibitory concentration (IC50) fell in the range of 1 to 5 µM. Further, on BRG-1, the 50% inhibitory concentration (IC50) lay within 1 to 5 µM and the Emax was above 50%.

For `C[C@@H]1CN(c2cccc(-c3csc(NC(=O)CNC(=O)c4ccc5c(c4)[C@](C)(C#N)COC5)n3)c2)C[C@H](C)O1` [Compound 254, (R)-4-cyano-N-(2-((4-(3-((cis)-2,6-dimethylmorpholino)phenyl)thiazol-2-yl)amino)-2-oxoethyl)-4-methylisochroman-6-carboxamide], on BRM, the “BRM Max % Inhibition” value is on record as above 95% and the IC50 was below 0.1 µM. Also, at BRG-1, the IC50 is below 0.1 µM and the Emax was above 95%.

Take `C[C@@H]1CN(c2cccc(-c3csc(NC(=O)CNC(=O)c4ccc5c(c4)[C@@](C)(C#N)CCO5)n3)c2)C[C@H](C)O1` [Compound 255, (4S)-4-cyano-N-[2-[[4-[3-[(cis)-2,6-dimethylmorpholin-4-yl]phenyl]thiazol-2-yl]amino]-2-oxo-ethyl]-4-methyl-chromane-6-carboxamide]: on BRM, the “BRM Max % Inhibition” value is on record as above 70% and the IC50 was 1 to 5 µM. Also, on BRG-1, the half-inhibitory concentration (IC50) is above 5 µM and the Emax was above 40%.

Consider `C[C@@H]1CN(c2cccc(-c3csc(NC(=O)CNC(=O)c4ccc5c(c4)[C@]4(CCC[C@H]4O)CC5)n3)c2)C[C@H](C)O1` [Compound 256, (1S,2R)-N-(2-((4-(3-((cis)-2,6-dimethylmorpholino)phenyl)thiazol-2-yl)amino)-2-oxoethyl)-2-hydroxy-2′,3′-dihydrospiro[cyclopentane-1,1′-indene]-6′-carboxamide], for which, on BRM, the “BRM Max % Inhibition” value was above 60% and the IC50 was in the range of 1 to 5 µM. On BRG-1, the IC50 was above 5 µM and the Emax was below 30%.

On to `Cn1cnc2ccc(-c3csc(NC(=O)CNC(=O)c4ccc5c(c4)[C@@](C)(CO)CC5)n3)cc21` [Compound 257, (S)-3-(hydroxymethyl)-3-methyl-N-(2-((4-(1-methyl-1H-benzo[d]imidazol-6-yl)thiazol-2-yl)amino)-2-oxoethyl)-2,3-dihydro-1H-indene-5-carboxamide], for which, on BRM, the “BRM Max % Inhibition” value was above 70% and the IC50 was in the range of 1 to 5 µM. Besides, on BRG-1, the IC50 is above 5 µM and the Emax was above 30%.

Regarding `CN1CCc2ccc(-c3csc(NC(=O)CNC(=O)c4ccc5c(c4)[C@@](C)(CO)CC5)n3)cc2C1=O` [Compound 258, (S)-3-(hydroxymethyl)-3-methyl-N-(2-((4-(2-methyl-1-oxo-1,2,3,4-tetrahydroisoquinolin-7-yl)thiazol-2-yl)amino)-2-oxoethyl)-2,3-dihydro-1H-indene-5-carboxamide], on BRM, the “BRM Max % Inhibition” value is recorded as above 80% and the IC50 lay in the range of 0.1 to 1 µM. Further, on BRG-1, the “BRG1 Max % Inhibition” value is on record as above 60% and the IC50 was 1 to 5 µM.

For `C[C@]1(CO)CCc2ccc(C(=O)NCC(=O)Nc3nc(-c4ccn5ccnc5c4)cs3)cc21` [Compound 259, (S)-3-(hydroxymethyl)-N-(2-((4-(imidazo[1,2-a]pyridin-7-yl)thiazol-2-yl)amino)-2-oxoethyl)-3-methyl-2,3-dihydro-1H-indene-5-carboxamide], at BRM, the “BRM Max % Inhibition” value was above 50% and the IC50 was in the range of 1 to 5 µM. Also, on BRG-1, the “BRG1 Max % Inhibition” value is on record as below 30% and the IC50 was above 5 µM.

In the case of `CN1C(=O)CCc2ccc(-c3csc(NC(=O)CNC(=O)c4ccc5c(c4)[C@@](C)(CO)CC5)n3)cc21` [Compound 260, (S)-3-(hydroxymethyl)-3-methyl-N-(2-((4-(1-methyl-2-oxo-1,2,3,4-tetrahydroquinolin-7-yl)thiazol-2-yl)amino)-2-oxoethyl)-2,3-dihydro-1H-indene-5-carboxamide], at BRM, the “BRM Max % Inhibition” value is above 60% and the IC50 lay in the range of 1 to 5 µM. Also, on BRG-1, the IC50 is above 5 µM and the Emax is above 30%.

`Cn1ncc2ccc(-c3csc(NC(=O)CNC(=O)c4ccc5c(c4)[C@@](C)(CO)CC5)n3)cc21` [Compound 261, (S)-3-(hydroxymethyl)-3-methyl-N-(2-((4-(1-methyl-1H-indazol-6-yl)thiazol-2-yl)amino)-2-oxoethyl)-2,3-dihydro-1H-indene-5-carboxamide]: on BRM, the “BRM Max % Inhibition” value is listed as above 60% and the IC50 was 1 to 5 µM. In addition, at BRG-1, the IC50 is above 5 µM and the Emax was above 30%.

As to `C[C@@H]1CN(c2cccc(-c3csc(NC(=O)CNC(=O)c4ccc5c(c4)[C@@](C)(C#N)CC5)n3)n2)C[C@H](C)O1` [Compound 262, (S)-3-cyano-N-(2-((4-(6-((cis)-2,6-dimethylmorpholino)pyridin-2-yl)thiazol-2-yl)amino)-2-oxoethyl)-3-methyl-2,3-dihydro-1H-indene-5-carboxamide], on BRM, the “BRM Max % Inhibition” value is listed as above 80% and the IC50 was in the range of 1 to 5 µM. Besides, on BRG-1, the IC50 lay in the range of 1 to 5 µM and the Emax was above 50%.

Turning to `Cc1cnc(O)c(-c2cccc(-c3csc(NC(=O)CNC(=O)c4ccc5c(c4)[C@](C)(CO)CC5)n3)n2)c1` [Compound 263, (R)-N-(2-((4-(2′-hydroxy-5′-methyl-[2,3′-bipyridin]-6-yl)thiazol-2-yl)amino)-2-oxoethyl)-3-(hydroxymethyl)-3-methyl-2,3-dihydro-1H-indene-5-carboxamide], on BRM, the “BRM Max % Inhibition” value is reported as above 80% and the IC50 fell in the range of 0.1 to 1 µM. Besides, at BRG-1, the IC50 is 1 to 5 µM and the Emax was above 40%.
